Experimental data taken from US8022235B2, “Compositions of phospholipid ether boronic acids and esters and methods for their synthesis and use” (Cellectar, Inc., priority 2007, dated 2011).
Entries after “also recorded” stand apart in the source; their conditions may differ.

Tests used:
rat mammary tumor = test: Biodistribution of 125I-NM324 in rat mammary tumor model; assay type: in vivo
[1] = biological target: T1, PLC isolated from Bacillus cereus (Bacillus cereus, UniProt P09598); test: PLC substrate assay; assay type: biochemical
T1 construct: PLC isolated from Bacillus cereus; endogenous in cells; host or cells: Bacillus cereus
Protocol: (§1) Formal metabolism studies were conducted on several PLE analogs including NM324, the predecessor of NM404. In these studies, each agent was examined to determine its ability to serve as substrates for enzymes associated with PLE metabolism. Three major enzymatic pathways are involved in the metabolism of PLE. O-Alkyl glycerol monooxygenase (AGMO) is responsible for cleavage of the alkyl ether linkage at C-1 to form either the long chain fatty alcohol or subsequently, the corresponding fatty acid. Phospholipases C (PLC) and D (PLD), on the other hand, give rise to the glycerol or phosphatidic acid products, respectively.

serum proteins = conditions: cited from earlier work
[2] = test system: carrageenan-induced granulomas; test: Uptake into inflammatory lesions; set-up: species or system rats; conditions: rat, in vivo
Source text: The utility of tumor tracers like ^67Ga-citrate and ^18F-FDG is limited by their lack of specificity to distinguish neoplasm from inflammation. Further, accumulation of FDG in the urine interferes with visualization of pelvic and abdominal abnormalities. This lack of specificity is a significant clinical issue in patients with cancer. […] Some exemplary embodiments of PLE analogs discussed herein are illustrated in FIG. 1. […] Although FDG-PET has paved the way for hybrid imaging, its lack of tumor cell specificity will always limit its diagnostic efficacy. New molecularly targeted agents, like NM404, which display universal tumor uptake and selective retention regardless of location, as well as selectivity for malignant tumor cells and not inflammatory or hyperplastic lesions, represents a significant improvement in the detection, targeting and characterization of cancer.

animal tumor models [3] = conditions: radioiodinated analogs, xenograft and spontaneous tumor rodent models, previous reports; cited from earlier work
human lung cancer = test: Clinical evaluation of NM324, scintigraphy; assay type: in vivo; conditions: for tumor uptake / detection: scintigraphy in lung cancer patients
Source text: FIG. 10 is a scintigraphic image of the anterior chest of Patient 03 acquired at 1, 2, and 6 days after iv administration of 1 mCi ^131I-NM324.
Based upon this work, NM404 [18-(4-iodophenyl)-octadecyl phosphocholine] emerged due to its enhanced ability to localize in tumor, its increased metabolic clearance from the liver, and its longer plasma half-life.

[4] = biological target: T2, O-Alkyl glycerol monooxygenase (AGMO) (Homo sapiens, UniProt Q6ZNB7); test: Microsomal AGMO substrate assay; assay type: biochemical; conditions: microsomal enzyme preparation
T2 construct: Using a microsomal AGMO enzyme preparation; from tissue
Protocol: as §1

Blood plasma kinetics = test: Blood plasma kinetics; set-up: species or system rats; conditions: rat, in vivo
animal tumor models [5] = test: Imaging and biodistribution across animal tumor models (general statements); conditions: mammary, prostate, squamous cell carcinoma, ovarian, colorectal, melanoma
Source text: See, for example, U.S. patent application Ser. Nos. 10/906,687, 11/177,740, 11/316,620 and 11/382,645. Due to deficiencies in metabolic phospholipase enzymes in the membranes of malignant tumor cells, the prevailing hypothesis for this specificity is that phospholipid ether analogs become trapped exclusively in tumor cell membranes because of their inability to become metabolized and eliminated by the cancerous cell. Thus, the differential clearance rates of phospholipid ethers from normal cells versus neoplastic tumor cells are responsible for this specificity.
The reason for the retention of PLE and analogs in cancer cells remains unknown. Without being held to any particular theory, however, the prevailing hypothesis, is that radioiodinated PLE and APC analogs become trapped in tumor cell membranes because of their inability to be metabolized and eliminated. On the other hand, such lipid molecules are metabolized and cleared by normal tissues, including the liver.
These PLE analogs are specifically designed to incorporate aromatic radioiodine in order to render the molecule stable towards in vivo deiodination.

Prostate MatLyLu = test: Gamma camera scintigraphy screen in Dunning R3327 (MAT LyLu) prostate cancer model; assay type: in vivo, Copenhagen rats; conditions: radioiodinated analog 30-40 μCi, images incl. 24 and 48 hours post injection
Protocol: The avidity of PLE and APC analogs to localize in tumors was evaluated in several animal models. The PC-3 model represents a human tumor cell line that was used to determine the target (tumor) to non-target ratio of NM404 and NM412 in head to head comparison in order to select a candidate for an initial human pharmacokinetic trial in prostate cancer patients. The MatLyLu (Dunning R3327 rat) model, a rat prostate tumor line, was used specifically to screen 9 specific analogs prior to entering them into control for dosimetry and tumor-bearing animals for determining tumor/background ratios. Finally, the Walker-256 carcinosarcoma model was used for quantitative tissue distribution purposes.
In order to expedite the screening process and minimize the number of tumor bearing animals utilized in multiple time point tissue distribution studies, new radioiodinated homologs were imaged by gamma camera scintigraphy in the rat Dunning […] (MAT LyLu strain) prostate cancer model. Thus, male Copenhagen rats received a subcutaneous injection of MAT LyLu cells (1×10^6 cells) in the thigh 10-14 days prior to injection of the radioiodinated PLE analogs (30-40 μCi) in 2% Tween-20 solution. Gamma camera images were obtained at multiple time points including 24 and 48 hours post injection. […] Tissue distribution of radioactivity in rats bearing Walker-256 carcinosarcoma was assessed at various time intervals following intravenous administration of the radioiodinated chain length homologs. The first group of compounds that was tested included three alkylphosphocholines: a shorter chain analog with seven carbons NM396 and two analogs with a longer chain length, 13 (NM397, C15 alkyl chain length) and 1 (NM404, C18 alkyl chain length).
In order to decrease liver uptake and prolong the plasma phase, the inventors examined 9 structural analogs of NM324 to identify agents that would display improved tumor-to-background tissue ratios with decreased liver uptake. The new PLE analogs were synthesized and radiolabeled with ^125I for initial image analysis in Copenhagen rats bearing Dunning R3327 prostate tumors. […] NM404 was therefore selected to undergo further imaging and biodistribution analysis in a variety of animal-tumor models.

[6] = test system: human PC-3 prostate tumor xenografts; test: Scintigraphy, microPET and tissue distribution in PC-3 tumor model; assay type: in vivo, SCID mice; conditions: advanced metastatic PC-3, 48 h post iv injection
[7] = test system: non-small cell lung cancer (NSCLC); test: Initial human pharmacokinetic evaluation, planar gamma-camera scintigraphy; assay type: in vivo; conditions: <1 mCi injection, preliminary, n=3
Source text: FIG. 6A-C images of lung cancer patient, posterior whole body planar nuclear medicine image (A) 4 days after iv administration of ^131I-NM404 (0.8 mCi) to a patient with non small cell lung cancer (6 cm dia., arrow). Lung tumor is easily detected in corresponding axial (B) and coronal (C) computed tomography (CT) scans;
In preparation for human clinical trials, unlabeled NM404 was subjected to independent (University of Buffalo Toxicology Research Center) acute toxicity evaluation at 1200 times the anticipated imaging mass dose in rats and rabbits. […] Due to its selective tumor uptake and retention properties in a variety of rodent tumor models and subsequent excellent safety profile in rats and rabbits, NM404 was selected to undergo initial human pharmacokinetic evaluation in non-small cell lung cancer (NSCLC) patients. Patients underwent planar gamma-camera scintigraphy after receiving an injection of ^131I-NM404 (<1 mCi).

[8] = excess boron ingestion; cited from earlier work

T1 sequence (P09598 39-283 limits assumed): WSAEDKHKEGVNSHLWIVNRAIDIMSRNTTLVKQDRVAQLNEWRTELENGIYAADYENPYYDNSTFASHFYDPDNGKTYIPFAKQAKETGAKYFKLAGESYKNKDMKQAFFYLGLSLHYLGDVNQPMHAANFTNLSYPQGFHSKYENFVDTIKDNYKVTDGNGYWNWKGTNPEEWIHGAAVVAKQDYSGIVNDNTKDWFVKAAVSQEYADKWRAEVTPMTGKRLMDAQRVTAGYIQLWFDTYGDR
T2 sequence (Q6ZNB7 whole entry, species assumed): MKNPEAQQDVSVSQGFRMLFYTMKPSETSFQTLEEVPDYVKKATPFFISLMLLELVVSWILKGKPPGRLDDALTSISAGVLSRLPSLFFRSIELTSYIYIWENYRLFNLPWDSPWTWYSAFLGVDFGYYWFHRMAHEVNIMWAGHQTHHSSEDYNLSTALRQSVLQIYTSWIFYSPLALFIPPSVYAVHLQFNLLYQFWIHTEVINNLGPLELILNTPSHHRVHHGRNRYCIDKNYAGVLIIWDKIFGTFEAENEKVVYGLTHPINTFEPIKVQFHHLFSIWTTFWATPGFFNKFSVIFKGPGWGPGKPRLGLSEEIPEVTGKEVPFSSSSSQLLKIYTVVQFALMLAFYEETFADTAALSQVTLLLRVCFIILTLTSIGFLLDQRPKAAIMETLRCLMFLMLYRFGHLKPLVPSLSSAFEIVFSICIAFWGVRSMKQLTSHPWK

In the case of `C[N+](C)(C)CCOP(=O)([O-])OCCCCCCCCCCCCc1cccc([125I])c1` [Compound 125I-NM324], the tumor-to-blood ratio (rat mammary tumor; 96 hours) is reported as 8.6 and the “time of maximum tumor-to-normal tissue ratios” value (rat mammary tumor; rat, in vivo) is reported as 96 h.

For `[3H]C(CCCCCC)C([3H])CCCCCCCC(=O)O[C@H](COC(=O)CCCCCCCCCCCCCCC)COP(=O)([O-])OCC[N+](C)(C)C` (stereo partly drawn) [DPPC, 1-palmitoyl-2-[^3H]-palmitoyl-L-3-phosphatidylcholine, reference compound], the “hydrolysis by PLC” value [1] was “underwent significant hydrolysis”.

In the case of `CCCCCCCCCCCCCCCCCCOCC(COP(=O)([O-])OCC[N+](C)(C)C)OC` (stereo not drawn) [ET-18-OCH3], the “ether lipid bound to HDL” value (serum proteins) is given as “about 6%” and the “ether lipid bound to albumin” value (serum proteins) is given as 71%.

For `O=C([O-])CC(O)(CC(=O)[O-])C(=O)[O-].[Ga+3]` [Gallium citrate, reference compound], the “uptake and retention in granulomas” value [2] was “concentrate significantly in the granulomatous lesions”.

For `COC(COCCCCCCCCCCCCc1cccc([125I])c1)COP(=O)([O-])OCC[N+](C)(C)C` (stereo not drawn) [NM294], the “selective retention by tumors” value (animal tumor models [3]) is listed as “selectively retained by a variety of human and animal tumors”.

With `C[N+](C)(C)CCOP(=O)([O-])OCCCCCCCCCCCCc1cccc(I)c1` [NM324, 12-(m-iodophenyl)dodecyl phosphocholine] the “uptake and retention in granulomas” value [2] was “no uptake and retention”, the liver uptake (human lung cancer; initial human pharmacokinetic studies) was “high liver uptake values; also recorded: unacceptable accumulation in liver tissue; also recorded: images were complicated by high liver radioactivity” and the “tumor uptake / detection” value (human lung cancer) was “detected tumors”. For the same compound, the “substrate for AGMO” value [4] was “not a substrate”, the “hydrolysis by PLC” value [1] was “not hydrolyzed” and the “elimination half life time in plasma” value (Blood plasma kinetics) was 2.43 h. For the same compound, the “tumor visualization by scintigraphy” value (animal tumor models [5]) was “successfully visualized” and the “selective retention by tumors” value (animal tumor models [3]) was “selectively retained by a variety of human and animal tumors”.

With `COC(COCCCCCCCCCCCCCCCCCCc1ccc(I)cc1)COP(=O)([O-])OCC[N+](C)(C)C` (stereo not drawn) [NM410] the “gamma camera imaging findings (tumor, liver, abdomen)” value (Prostate MatLyLu) was “high hepatic uptake, significant abdominal accumulation and retention or poor tumor uptake and retention; also recorded: high radioactivity levels in the liver and abdomen with little to no uptake of the agent into tumors”.

With `C[N+](C)(C)CCOP(=O)([O-])OCCCCCCCCCCCCCCCCCCc1ccc([124I])cc1` [^124I-NM404] the “microPET uptake in primary tumor and lymph nodes” value [6] was “significant uptake”.

For `C[N+](C)(C)CCOP(=O)([O-])OCCCCCCCCCCCCc1cccc([131I])c1` [^131I-NM324], the “tumor uptake / detection” value (human lung cancer) was “Uptake is seen in the left lingular lung cancer (T) with increasing tumor-to-background ratios over time”.

In the case of `C[N+](C)(C)CCOP(=O)([O-])OCCCCCCCCCCCCCCCCCCc1ccc([131I])cc1` [^131I-NM404], the “tumor uptake and retention” value [7] is reported as “tumor uptake and prolonged retention in primary lung tumors”.

For `OB(O)O` [boric acid], the excretion [8] is listed as “excreted rapidly in the urine” and the time to disappearance [8] is listed as no more than 4 days.
